Data set [1] has as its system patients diagnosed with mild to moderate AD. As to the kind of experiment: ADAS-cog (cognitive Alzheimer's Disease Assessment Scale) in Alzheimer's patients. The format is in vivo, human. The settings on record: for Cognitive function (ADAS-cog), in words / ADAS-cog change, in words: 24 weeks; for ADAS-cog change from baseline (FIG. 3), in words: course of the study. Here is the method:
(§1) Analysis for the full intent to treat (ITT) population was performed on 511 subjects who were randomly allocated into one of four specific treatment regimes. Genotyping analysis was performed on 63% (323/511) of the ITT population.
(§2) Patient population included Caucasian males and females between 50-85 years of age who had been diagnosed with mild to moderate AD, were not receiving any medications which could adversely prejudice the study (e.g. PPAR-gamma agonists or conventional AD medicaments) or had any other potentially prejudicial ailments (e.g. diabetes or major psychiatric disorders).
(§3) Patients received either placebo or one of three dosage levels of extended release rosiglitazone provided once daily (2 mg, 4 mg and 8 mg tablets as described in Example 1). Patients were examined using the cognitive Alzheimer's Disease Assessment Scale (ADAS-cog; for further information see Rosen W G et al. Am. J. Psychiatry. 1984 141:1356-1364) and the Clinician's Interview-Based Impression of Change with caregiver information (CIBIC+; for further information see Knopman D S et al. Neurology 1994 44: 2315-2321); and secondary assessments were performed using: the Disability Assessment for Dementia (DAD, for further information see Gelinas L et al. Am J Occup Ther 1999 53: 471-81) and the Neuropsychiatric Inventory test (NPI, for further information see Cummings et al (1994) Neurology 44, 2308-2314) at the start of the study (baseline) and during the course of the study (after 8, 16 and 24 weeks of treatment).
(§4) APOE genotype was determined using the TaqMan PCR-based method of McLeod et al 2001 infra.
(§5) All statistics reflect last observed assessment carried forward (LOCF) measurements.
It should be noted that in the case of ADAS-cog higher scores indicate reduced cognitive function.

Data set [2] has the same test system. Description: CIBIC+ (Clinician's Interview-Based Impression of Change with caregiver information) in Alzheimer's patients. The format is in vivo, human. Here is the method: as §1, §2, §3, §4, §5
Higher CIBIC+ scores indicate a greater level of decline with scores below 4 denoting clinical improvement and scores above 4 denoting clinical decline.

For data set [3] the test system is unchanged. As to the kind of experiment: Disability Assessment for Dementia (DAD) in Alzheimer's patients. The following applies: week 24. The data set is classed as in vivo, human. Here is the method: as §3
Similar results were identified using the Disability Assessment for Dementia (DAD) test (Gelinas L et al. Am J Occup Ther 1999 53: 471-81). A prospectively defined test for interaction between APOE4 carriage status and DAD scores at week 24 was significant (P=0.006).

Data set [4] has the same test system. Description: Neuropsychiatric Inventory (NPI) test in Alzheimer's patients. The data set is classed as in vivo, human. The settings on record: week 24. Here is the method: as §3
Similar results were identified using the Neuropsychiatric Inventory (NPI) test (Cummings et al (1994) Neurology 44, 2308-2314). A prospectively defined test for interaction between APOE4 carriage status and NPI scores at week 24 was significant ([…]).

The subject of another data set is dopaminergic cells. The settings on record: acetaldehyde, MPTP; cited from earlier work.
Data set [5] concerns individuals with mild cognitive impairment. The settings on record: at three years; cited from earlier work.
Data set [6] concerns patients with moderate to severe AD. The settings on record: cited from earlier work.
The test system of the next data set is AD and MCI. The settings on record: clinical trial; cited from earlier work.

Here are results for five molecules from patent publication US20080262047A1, “Ppar-Gamma Agonists for Improvement of Cognitive Function in Apoe4 Negative Patients” (priority 2005, published 2008).

Entries after “also recorded” stand apart in the source; their conditions may differ.

In the case of `CN(CCOc1ccc(CC2SC(=O)NC2=O)cc1)c1ccccn1` (stereo not drawn) [Rosi, 5-[4-[2-(N-methyl-N-(2-pyridyl)amino)ethoxy]benzyl]thiazolidine-2,4-dione], the “ADAS-cog change from baseline (FIG. 2), in words” value in data set [1] (APOE4+ individuals, 2 mg, 4 mg or 8 mg, after 8 weeks) was “slight improvement”; in data set [1] (APOE4+ individuals, 2 mg, after 16 weeks), “greater decline than the placebo”; in data set [1] (APOE4+ individuals, 4 mg and 8 mg, after 16 weeks, versus placebo), “the same or better clinical status”; in data set [1] (APOE4+ individuals, all three treatment arms, after 24 weeks) it was “finish with a clinical decline”; in data set [1] (APOE4− individuals, 2 mg, 4 mg or 8 mg, all time points (8, 16 and 24 weeks)) it was “marked improvement”. The “Cognitive function (ADAS-cog), in words” value in data set [1] (APOE4 heterozygotes (single APOE4 allele), listed as rosiglitazone) is listed as “do not show any recognisable trend; also recorded: stabilisation in cognitive function”; in data set [1] (APOE4 homozygotes (two APOE4 alleles), listed as rosiglitazone), “relatively large positive change in ADAS-cog scores; also recorded: may experience a clinical decline”; in data set [1] (APOE4− patients (no APOE4 allele), listed as rosiglitazone) it was “general trend of improvement in cognitive function; also recorded: clinically relevant improvement in cognitive function relative to placebo”. For the same molecule, the “ADAS-cog change, in words” value in data set [1] (APOE4 heterozygotes, 2 mg) is “some decline”; in data set [1] (APOE4 heterozygotes, 4 mg and 8 mg) it was “little change”. The “ADAS-cog change from baseline (FIG. 3), in words” value is “remained close to the baseline” in data set [1] (APOE4 heterozygotes, higher doses (4, 8 mg)) and “experienced a clinical decline” in data set [1] (APOE4 homozygotes). In data set [1] (ITT population as a whole, 2, 4, 8 mg, listed as rosiglitazone), the “ADAS-cog effect of treatment, in words” value is reported as “trend is not statistically significant; also recorded: non-statistically significant trend to a general improvement”. The “CIBIC+, in words” value in data set [2] (APOE4 heterozygotes, 2 mg, 24 weeks) is “decline”; in data set [2] (APOE4 heterozygotes, 4 mg, 24 weeks), “Less decline”; in data set [2] (APOE4 heterozygotes, 8 mg, 24 weeks), “slight improvement”; in data set [2] (APOE4 homozygotes, 24 weeks, compared to placebo) it was “slight improvement”; in data set [2] (APOE4− patients, 24 week period), “slight improvement”. Also, the “CIBIC+ difference between treatment groups and placebo, in words” value in data set [2] (ITT population, 24 weeks) is reported as “did not lead to a distinguishable difference”. Also, in data set [2] (Table 13a (updated analysis, additional subjects), PGx ITT population, APOE4 copies 1, Rosi 8 mg (n = 23), after 24 weeks), the “CIBIC+ model adjusted, LSMean (SE)” value is 3.70 (0.24). Further, the “DAD, in words” value is recorded as “demonstrated no improvement” in data set [3] (APOE4+ subjects) and “demonstrated improvement on DAD” in data set [3] (APOE4− subjects). Further, the “NPI, in words” value in data set [4] (APOE4+ subjects) was “demonstrated no improvement”; in data set [4] (APOE4− subjects), “demonstrated improvement on NPI”. Further, the “Protection of dopaminergic cells from toxic insults” value in the data set on dopaminergic cells is “can protect dopaminergic cells”.
Take `COc1cc2c(cc1OC)C(=O)C(CC1CCN(Cc3ccccc3)CC1)C2` (stereo not drawn) [donepezil]: the “Rate at which patients developed AD” value in data set [5] was “no separation between groups”.
Turning to `CC12CC3CC(C)(C1)CC(N)(C3)C2` [memantine], in data set [6], the Adverse effects result is recorded as “low incidence of adverse effects” and the Rate of deterioration entry was “significantly retard the rate of deterioration”.
Regarding `CCc1ccc(CCOc2ccc(CC3SC(=O)NC3=O)cc2)nc1` (stereo not drawn) [pioglitazone, 5-[4-[2-(5-ethyl-2-pyridyl)ethoxy]benzyl]thiazolidine-2,4-dione], in the data set on dopaminergic cells, the “Protection of dopaminergic cells from toxic insults” value is reported as “can protect dopaminergic cells”.
Take `CS(=O)(=O)c1ccc(C2=C(c3ccccc3)C(=O)OC2)cc1` [rofecoxib]: in the data set on AD and MCI, the “Efficacy in AD and MCI” value was “failed to show any efficacy”.
